From patent US4387106A, “Method of treating atherosclerosis with di(aralkyl)ureas and di(aralkyl)thioureas” (American Cyanamid Company, priority 1982, dated 1983) come the findings set out here.

Experiment [1] concerns the target T1, fatty acyl CoA:cholesterol acyl transferase (ACAT) (Rattus norvegicus, UniProt O70536).
T1 construct: The supernatant, containing the microsomal fraction, served as the source of the cholesterol-esterifying enzyme; from tissue; host or cells: rat adrenals, homogenate, 1000 x g supernatant containing the microsomal fraction
T1 sequence (O70536 1-545): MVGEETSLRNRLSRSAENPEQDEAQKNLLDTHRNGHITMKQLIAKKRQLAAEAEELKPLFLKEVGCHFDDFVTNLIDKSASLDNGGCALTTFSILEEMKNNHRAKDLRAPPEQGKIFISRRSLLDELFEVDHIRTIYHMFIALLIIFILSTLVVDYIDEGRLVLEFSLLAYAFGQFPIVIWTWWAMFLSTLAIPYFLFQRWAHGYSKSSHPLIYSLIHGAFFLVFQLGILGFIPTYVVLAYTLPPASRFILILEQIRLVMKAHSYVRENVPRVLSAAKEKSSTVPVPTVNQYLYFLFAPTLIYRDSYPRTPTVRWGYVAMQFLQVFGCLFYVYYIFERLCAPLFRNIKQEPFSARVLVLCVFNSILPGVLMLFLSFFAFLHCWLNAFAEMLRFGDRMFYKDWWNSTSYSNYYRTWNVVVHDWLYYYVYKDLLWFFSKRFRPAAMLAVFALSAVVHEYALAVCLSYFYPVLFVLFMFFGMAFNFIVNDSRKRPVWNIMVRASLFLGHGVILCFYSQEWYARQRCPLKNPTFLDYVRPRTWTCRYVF
Description: In vitro inhibition of fatty acyl CoA:cholesterol acyl transferase (ACAT), rat adrenal supernatant. Type of experiment: biochemical. The conditions noted are these: pH 7.4, 37° C., oleoyl CoA (14C). How it is done:
The compounds were tested for their ability to inhibit ACAT according to the following procedure:
Rat adrenals were homogenized in 0.2 M monobasic potassium phosphate buffer, pH 7.4, and centrifuged at 1000 times gravity for 15 minutes at 5° C. The supernatant, containing the microsomal fraction, served as the source of the cholesterol-esterifying enzyme, fatty acyl CoA:cholesterol acyl transferase (ACAT). A mixture comprising 50 parts of adrenal supernatant, 10 parts of albumin (BSA) (50 mg./ml.), 3 parts of test compound (final concentration 5.2 μg./ml.) and 500 parts of buffer was preincubated at 37° C. for 10 minutes. After treatment with 20 parts of oleoyl CoA (^14 C--0.4 μCi) the mixture was incubated at 37° C. for 10 minutes. A control mixture, omitting the test compound, was prepared and treated in the same manner. The lipids from the incubation mixture were extracted into an organic solvent and separated by thin-layer chromatography. The cholesteryl ester fraction was counted in a scintillation counter.

A further experiment relates to Cholesterol absorption. The conditions noted are these: po, 0.03 % of diet, 336 h.
Setting [2] is: final concentration 5.2 μg./ml.
Where [3] appears, read: pH 7.4, final concentration 5.2 μg./ml.

Description for Cholesterol absorption: Compounds were tested in vitro for their ability to inhibit the enzyme fatty acyl CoA:cholesterol acyl transferase (ACAT) and in vivo for serum hypolipidemic activity as measured by their ability to inhibit lipid absorption in rats.
Inhibition of Cholesterol absorption was determined by feeding male Sprague-Dawley rats, weighing 150-170 g., A 1% cholesterol:0.5% cholic acid diet for 2 weeks. The diet also contained compounds being tested at a dose of 0.03% of the diet. Control rats were fed the same diet without any compound. At the end of the test, the rats were sacrificed by decapitation. Blood is collected, centrifuged at 1.5 kg times gravity for 10 minutes at 4° C., and the serum is then analyzed for cholesterol and triglycerides enzymatically by the method of Trinder, P., Analyst, 77, 321 (1952) on a Centrifichem 400 Analyzer. Livers are removed, a 0.4 g sample is taken from the center of the large lobe, and the sample is subjected to saponification using 25% saturated potassium hydroxide in ethanol. The resulting neutral sterols are extracted with petroleum ether and extract analyzed for cholesterol. The effectiveness of the compound in inhibiting cholesterol absorption is measured by the lowering of either serum cholesterol or liver cholesterol relative the values for control rats.

One may read the inhibition as the change of the read-out against control, counted positive when it falls. A high value points to a response far below the control. `Cc1cccc(Cl)c1NC(=O)N(Cc1ccccc1)Cc1ccccc1` [1,1-Dibenzyl-3-(6-chloro-2-methylphenyl)urea]: 5.2 µg/mL produced 83.9% inhibition in experiment [1] (setting [2]).

On to `O=C(Nc1cc(F)ccc1F)N(Cc1ccccc1)Cc1ccccc1` [1,1-Dibenzyl-3-(2,5-difluorophenyl)urea], for which, in experiment [1] (setting [2]), the inhibition at 5.2 µg/mL amounted to 72%. Same read-out and setting: to `Cc1cccc(NC(=O)N(Cc2ccccc2)Cc2ccccc2)c1` [1,1-Dibenzyl-3-(3-methylphenyl)urea] belongs 88.9%; to `CCCCOc1ccc(NC(=O)N(Cc2ccccc2)Cc2ccccc2)cc1` [1,1-Dibenzyl-3-(4-n-butoxyphenyl)urea], 90.2%. With `O=C(Nc1ccc(Cl)cc1Cl)N(Cc1ccccc1)Cc1ccccc1` [1,1-Dibenzyl-3-(2,4-dichlorophenyl)urea], the “Result (inhibition of cholesterol absorption: lowering of serum or liver cholesterol relative to control)” value in the experiment with Cholesterol absorption is reported as “Active”. In addition, at 5.2 µg/mL the inhibition in experiment [1] (setting [2]) was 83.3%. The corresponding values for `Cc1ccc(NC(=S)N(Cc2ccccc2)Cc2ccccc2)cc1Cl` [1,1-Dibenzyl-3-(3-chloro-4-methylphenyl)thiourea] are “Active” and 94.1%. The corresponding values for `CCOC(=O)c1ccc(NC(=O)N(Cc2ccccc2)Cc2ccccc2)cc1` [1,1-Dibenzyl-3-(4-carboethoxyphenyl)urea] are “Active” and 94.9%. Take `Cc1cc(C)cc(NC(=O)N(Cc2ccccc2)Cc2ccccc2)c1` [1,1-Dibenzyl-3-(3,5-dimethylphenyl)urea]: the inhibition at 5.2 µg/mL in experiment [1] (setting [2]) amounted to 90.2%. As for `O=C(O)c1ccc(NC(=O)N(Cc2ccccc2)Cc2ccccc2)cc1` [1,1-Dibenzyl-3-(4-carboxyphenyl)urea], in experiment [1] (setting [2]), 5.2 µg/mL produced 14.1% inhibition. On to `Cc1cc(C)c(NC(=O)N(Cc2ccccc2)Cc2ccccc2)cc1C` [1,1-Dibenzyl-3-(2,4,5-trimethylphenyl)urea], for which the “Result (inhibition of cholesterol absorption: lowering of serum or liver cholesterol relative to control)” value in the experiment with Cholesterol absorption is “Active”. Further, 5.2 µg/mL produced 69.1% inhibition in experiment [1] (setting [2]). The compound `Cc1ccccc1NC(=O)N(Cc1ccccc1)Cc1ccccc1` [1,1-Dibenzyl-3-(2-methylphenyl)urea] showed an inhibition at 5.2 µg/mL in experiment [1] (setting [2]) of 77%.

`CC(=O)c1cccc(NC(=O)N(Cc2ccccc2)Cc2ccccc2)c1` [1,1-Dibenzyl-3-(3-acetylphenyl)urea] came in with an inhibition at 5.2 µg/mL in experiment [1] (setting [2]) of 80.7%. Regarding `O=C(Nc1cc(Cl)ccc1Cl)N(Cc1ccccc1)Cc1ccccc1` [1,1-Dibenzyl-3-(2,5-dichlorophenyl)urea], in experiment [1] (setting [2]), 5.2 µg/mL produced 82.4% inhibition.

Consider `COc1ccccc1NC(=O)N(Cc1ccccc1)Cc1ccccc1` [1,1-Dibenzyl-3-(2-methoxyphenyl)urea], for which 5.2 µg/mL produced 91% inhibition in experiment [1] (setting [2]). The same measure, in the same setting: the result for `COc1cccc(NC(=O)N(Cc2ccccc2)Cc2ccccc2)c1` [1,1-Dibenzyl-3-(3-methoxyphenyl)urea] reads 87%; that for `O=C(Nc1ccccc1Br)N(Cc1ccccc1)Cc1ccccc1` [1,1-Dibenzyl-3-(2-bromophenyl)urea], 93.9%. Same read-out and setting: the result for `O=C(Nc1c(Cl)cccc1Cl)N(Cc1ccccc1)Cc1ccccc1` [1,1-Dibenzyl-3-(2,6-dichlorophenyl)urea] reads 88.6%; that for `CCOc1ccc(NC(=O)N(Cc2ccccc2)Cc2ccccc2)cc1` [1,1-Dibenzyl-3-(4-ethoxyphenyl)urea], 95.8%; that for `O=C(Nc1cccc(Cl)c1Cl)N(Cc1ccccc1)Cc1ccccc1` [1,1-Dibenzyl-3-(2,3-dichlorophenyl)urea], 79.7%. In experiment [1] (setting [2]), `O=C(Nc1ccc(Cl)c(C(F)(F)F)c1)N(Cc1ccccc1)Cc1ccccc1` [1,1-Dibenzyl-3-(4-chloro-3-trifluoromethylphenyl)urea] had an inhibition at 5.2 µg/mL of 92%. On the same count and under the same terms, the result for `O=C(Nc1cccc(Cl)c1)N(Cc1ccccc1)Cc1ccccc1` [1,1-Dibenzyl-3-(3-chlorophenyl)urea] reads 94.2%. Same read-out and setting: the result for `O=C(Nc1cccc([N+](=O)[O-])c1)N(Cc1ccccc1)Cc1ccccc1` [1,1-Dibenzyl-3-(3-nitrophenyl)urea] reads 81.3%; that for `CCOC(=O)c1ccc(NC(=S)N(Cc2ccccc2)Cc2ccccc2)cc1` [1,1-Dibenzyl-3-(4-carboethoxyphenyl)thiourea], 76.6%. In experiment [1] (setting [2]), `Cc1ccc(C)c(NC(=O)N(Cc2ccccc2)Cc2ccccc2)c1` [1,1-Dibenzyl-3-(2,5-dimethylphenyl)urea] had an inhibition at 5.2 µg/mL of 89.1%.

Compound `CCc1cccc(CC)c1NC(=O)N(Cc1ccccc1)Cc1ccccc1` [1,1-Dibenzyl-3-(2,6-diethylphenyl)urea] displayed an inhibition at 5.2 µg/mL in experiment [1] (setting [2]) of 72%. Still for that read-out and setting: to `Cc1cccc(C)c1NC(=O)N(Cc1ccccc1)Cc1ccccc1` [1,1-Dibenzyl-3-(2,6-dimethylphenyl)urea] belongs 56.1%; to `O=C(Nc1ccc([N+](=O)[O-])cc1)N(Cc1ccccc1)Cc1ccccc1` [1,1-Dibenzyl-3-(4-nitrophenyl)urea], 52.2%; to `O=C(Nc1ccc(Br)cc1)N(Cc1ccccc1)Cc1ccccc1` [1,1-Dibenzyl-3-(4-bromophenyl)urea], 79.9%. Still for that read-out and setting: the result for `FC(F)(F)c1cccc(NC(=S)N(Cc2ccccc2)Cc2ccccc2)c1` [1,1-Dibenzyl-3-(3-trifluoromethylphenyl)thiourea] reads 88.6%. The same measure, in the same setting: to `O=C(Nc1ccc(I)cc1)N(Cc1ccccc1)Cc1ccccc1` [1,1-Dibenzyl-3-(4-iodophenyl)urea] belongs 85.2%. Regarding `Cc1ccc(NC(=O)N(Cc2ccccc2)Cc2ccccc2)cc1` [1,1-Dibenzyl-3-(4-methylphenyl)urea], the values for the inhibition at 5.2 µg/mL in experiment [1] (setting [2]) and in experiment [1] (setting [3]) were 89.8% and 86.5%, respectively. As for `O=C(Nc1ccc(Cl)cc1)N(Cc1ccccc1)Cc1ccccc1` [1,1-Dibenzyl-3-(4-chlorophenyl)urea], the inhibition at 5.2 µg/mL in experiment [1] (setting [2]) was 77.5%. In turn, `O=C(Nc1ccc(Br)cc1Br)N(Cc1ccccc1)Cc1ccccc1` [1,1-Dibenzyl-3-(2,4-dibromophenyl)urea] displayed an inhibition at 5.2 µg/mL in experiment [1] (setting [2]) of 81.9%. The same measure, in the same setting: to `CC(C)c1cccc(C(C)C)c1NC(=O)N(Cc1ccccc1)Cc1ccccc1` [1,1-Dibenzyl-3-(2,6-isopropylphenyl)urea, 1,1-Dibenzyl-3-(2,6-diisopropylphenyl)urea] belongs 59.1%; to `O=C(Nc1ccccc1)N(Cc1ccccc1)Cc1ccccc1` [1,1-Dibenzyl-3-phenylurea, 1,1-Dibenzyl-3-phenyl urea], 90.4%; to `O=C(Nc1ccccc1Cl)N(Cc1ccccc1)Cc1ccccc1` [1,1-Dibenzyl-3-(2-chlorophenyl)urea], 87.8%.

In turn, `COc1ccc(NC(=O)N(Cc2ccccc2)Cc2ccccc2)cc1` [1,1-Dibenzyl-3-(4-methoxyphenyl)urea] displayed an inhibition at 5.2 µg/mL in experiment [1] (setting [2]) of 71.6%. On the same count and under the same terms, the result for `CCc1cccc(C)c1NC(=O)N(Cc1ccccc1)Cc1ccccc1` [1,1-Dibenzyl-3-(6-ethyl-2-methylphenyl)urea] reads 73.6%; that for `O=C(Nc1cccc(C(F)(F)F)c1)N(Cc1ccccc1)Cc1ccccc1` [1,1-Dibenzyl-3-(3-trifluoromethylphenyl)urea], 94.2%; that for `O=C(Nc1ccc(Cl)c(Cl)c1)N(Cc1ccccc1)Cc1ccccc1` [1,1-Dibenzyl-3-(3,4-dichlorophenyl)urea], 94.5%. Same read-out and setting: the result for `CSc1ccc(NC(=O)N(Cc2ccccc2)Cc2ccccc2)cc1` [1,1-Dibenzyl-3-(4-methylthiophenyl)urea] reads 67.1%. On the same count and under the same terms, to `COc1ccc(OC)c(NC(=O)N(Cc2ccccc2)Cc2ccccc2)c1` [1,1-Dibenzyl-3-(2,5-dimethoxyphenyl)urea] belongs 87.9%. Compound `O=C(Nc1cccc2ccccc12)N(Cc1ccccc1)Cc1ccccc1` [1,1-Dibenzyl-3-(2,3-dibenzophenyl)urea] displayed an inhibition at 5.2 µg/mL in experiment [1] (setting [2]) of 90%.

As for `Cc1c(Cl)cccc1NC(=O)N(Cc1ccccc1)Cc1ccccc1` [1,1-Dibenzyl-3-(3-chloro-2-methylphenyl)urea], the inhibition at 5.2 µg/mL in experiment [1] (setting [2]) worked out at 83.8%. Consider `O=C(Nc1cc(Cl)cc(Cl)c1)N(Cc1ccccc1)Cc1ccccc1` [1,1-Dibenzyl-3-(3,5-dichlorophenyl)urea], for which the inhibition at 5.2 µg/mL in experiment [1] (setting [2]) came out at 86.1%.

The compound `O=C(Nc1ccc2ccccc2c1)N(Cc1ccccc1)Cc1ccccc1` [1,1-Dibenzyl-3-(3,4-dibenzophenyl)urea] showed an inhibition at 5.2 µg/mL in experiment [1] (setting [3]) of 97.3%.
